Laboratory results published in ChEMBL document CHEMBL3632483, “Synthesis and pharmacological evaluation of piperidine (piperazine)-substituted benzoxazole derivatives as multi-target antipsychotics” (Bioorg Med Chem Lett, 2015).

Molecular target: D(2) dopamine receptor (Rattus norvegicus, UniProt P61169)
Assay: Displacement of [3H]spiperone from dopaminergic D2 receptor in rat striatum homogenates after 60 mins by liquid scintillation counting
Conditions: not given

Sequence of D(2) dopamine receptor (P61169 whole entry): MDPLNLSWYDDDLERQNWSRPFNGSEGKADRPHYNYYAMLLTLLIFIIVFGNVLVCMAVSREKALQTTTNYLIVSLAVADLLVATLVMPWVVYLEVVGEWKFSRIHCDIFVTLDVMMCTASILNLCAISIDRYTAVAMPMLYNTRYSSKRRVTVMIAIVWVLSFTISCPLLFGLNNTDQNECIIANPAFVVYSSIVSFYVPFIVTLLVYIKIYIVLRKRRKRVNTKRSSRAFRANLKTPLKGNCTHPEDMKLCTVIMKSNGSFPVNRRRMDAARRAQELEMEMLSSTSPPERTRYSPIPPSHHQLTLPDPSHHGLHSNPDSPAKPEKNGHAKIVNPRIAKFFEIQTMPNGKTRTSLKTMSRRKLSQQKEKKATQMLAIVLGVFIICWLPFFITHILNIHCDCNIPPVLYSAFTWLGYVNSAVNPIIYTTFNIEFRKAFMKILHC

| SMILES | Ki [nM] |
| --- | --- |
| c1ccc(N2CCN(CCCOc3ccc(-c4nc5ccccc5o4)cc3)CC2)cc1 | > 10000 |
| c1ccc2oc(-c3ccc(OCCCN4CCC(c5nc6ccccc6s5)CC4)cc3)nc2c1 | > 10000 |
| CC(c1ccc(OCCCN2CCC(c3noc4cc(F)ccc34)CC2)cc1)c1nc2ccccc2o1 (stereo unspecified) | 60.3 |
| Fc1ccc2c(C3CCN(CCCOc4ccc(-c5nc6ccccc6s5)cc4)CC3)noc2c1 | > 10000 |
| Cc1cccc(N2CCN(CCCOc3ccc(-c4nc5ccccc5o4)cc3)CC2)c1C | > 10000 |
| c1ccc2c(c1)OCC(CN1CCN(CCCOc3ccc(-c4nc5ccccc5o4)cc3)CC1)O2 (stereo unspecified) | > 10000 |
| FC(F)(F)c1cccc(N2CCN(CCCOc3ccc(-c4nc5ccccc5o4)cc3)CC2)c1 | > 10000 |

The remaining compounds from weak to strong by Ki, led by results:

| Ki [nM] | SMILES |
| --- | --- |
| 1590 | Cc1cc(-c2nc3ccccc3o2)ccc1OCCCN1CCC(c2noc3cc(F)ccc23)CC1 |
| 1190 | COc1cc(OCCCN2CCC(c3noc4cc(F)ccc34)CC2)ccc1-c1nc2ccccc2o1 |
| 467 | COc1ccccc1N1CCN(CCCOc2ccc(-c3nc4ccccc4o3)cc2)CC1 |
| 198 | c1cnc(N2CCN(CCCOc3ccc(-c4nc5ccccc5o4)cc3)CC2)nc1 |
| 143 | Fc1ccc2c(C3CCN(CCCOc4ccc(-c5nc6ccccc6o5)c(F)c4)CC3)noc2c1 |
| 16.3 | COc1ccccc1N1CCN(CCCOc2ccc(-c3nc4ccccc4[nH]3)cc2)CC1 |

Molecular target: T1, 5-hydroxytryptamine receptor 1A (Rattus norvegicus, UniProt P19327)
T1 sequence (P19327 whole entry): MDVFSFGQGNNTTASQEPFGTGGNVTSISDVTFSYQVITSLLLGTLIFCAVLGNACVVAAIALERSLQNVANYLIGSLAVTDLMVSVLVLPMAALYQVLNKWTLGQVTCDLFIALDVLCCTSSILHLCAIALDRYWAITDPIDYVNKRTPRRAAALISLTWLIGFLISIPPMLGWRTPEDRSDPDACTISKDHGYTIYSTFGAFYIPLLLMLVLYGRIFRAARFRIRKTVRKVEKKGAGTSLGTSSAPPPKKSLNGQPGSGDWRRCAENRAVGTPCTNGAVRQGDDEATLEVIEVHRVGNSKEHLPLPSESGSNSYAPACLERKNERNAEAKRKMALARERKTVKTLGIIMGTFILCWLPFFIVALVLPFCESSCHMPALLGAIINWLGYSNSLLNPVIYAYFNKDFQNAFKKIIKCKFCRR
Assay: Displacement of [3H]8-OH-DPAT from 5-HT1A receptor in rat cerebral cortex homogenates after 60 mins by liquid scintillation counting
Format: tissue-based
Conditions: not given

| SMILES | Ki [nM] |
| --- | --- |
| c1ccc(N2CCN(CCCOc3ccc(-c4nc5ccccc5o4)cc3)CC2)cc1 | > 10000 |
| c1ccc2oc(-c3ccc(OCCCN4CCC(c5nc6ccccc6s5)CC4)cc3)nc2c1 | 146 |
| CC(c1ccc(OCCCN2CCC(c3noc4cc(F)ccc34)CC2)cc1)c1nc2ccccc2o1 (stereo unspecified) | 89.6 |
| Fc1ccc2c(C3CCN(CCCOc4ccc(-c5nc6ccccc6s5)cc4)CC3)noc2c1 | 1760 |
| Cc1cccc(N2CCN(CCCOc3ccc(-c4nc5ccccc5o4)cc3)CC2)c1C | 4690 |
| c1ccc2c(c1)OCC(CN1CCN(CCCOc3ccc(-c4nc5ccccc5o4)cc3)CC1)O2 (stereo unspecified) | > 10000 |
| FC(F)(F)c1cccc(N2CCN(CCCOc3ccc(-c4nc5ccccc5o4)cc3)CC2)c1 | > 10000 |

Results, then the compound that gave them:

| Ki [nM] | SMILES |
| --- | --- |
| 2140 | Cc1cc(-c2nc3ccccc3o2)ccc1OCCCN1CCC(c2noc3cc(F)ccc23)CC1 |
| 1560 | COc1cc(OCCCN2CCC(c3noc4cc(F)ccc34)CC2)ccc1-c1nc2ccccc2o1 |
| 46.8 | COc1ccccc1N1CCN(CCCOc2ccc(-c3nc4ccccc4o3)cc2)CC1 |
| 56.2 | c1cnc(N2CCN(CCCOc3ccc(-c4nc5ccccc5o4)cc3)CC2)nc1 |
| 232 | Fc1ccc2c(C3CCN(CCCOc4ccc(-c5nc6ccccc6o5)c(F)c4)CC3)noc2c1 |
| 258 | COc1ccccc1N1CCN(CCCOc2ccc(-c3nc4ccccc4[nH]3)cc2)CC1 |

Molecular target: 5-hydroxytryptamine receptor 2A (Rattus norvegicus, UniProt P14842)
Sequence (P14842 whole entry): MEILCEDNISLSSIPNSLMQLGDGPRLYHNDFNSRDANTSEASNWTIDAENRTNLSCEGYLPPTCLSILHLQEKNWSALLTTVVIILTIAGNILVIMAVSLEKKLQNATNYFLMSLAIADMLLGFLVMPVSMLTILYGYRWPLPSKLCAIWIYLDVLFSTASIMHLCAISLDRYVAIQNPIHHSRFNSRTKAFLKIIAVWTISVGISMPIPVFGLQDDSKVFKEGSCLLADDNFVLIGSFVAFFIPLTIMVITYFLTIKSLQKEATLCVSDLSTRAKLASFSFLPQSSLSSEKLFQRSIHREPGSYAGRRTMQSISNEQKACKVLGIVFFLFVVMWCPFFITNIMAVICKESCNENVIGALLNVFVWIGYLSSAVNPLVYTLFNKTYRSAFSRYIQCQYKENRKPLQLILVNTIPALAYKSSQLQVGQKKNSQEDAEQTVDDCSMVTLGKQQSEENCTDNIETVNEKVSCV
Assay: Displacement of [3H]ketanserine from 5-HT2A receptor in rat cerebral cortex homogenates after 60 mins by liquid scintillation counting
Format: tissue-based
Conditions: not given

| SMILES | Ki [nM] |
| --- | --- |
| c1ccc(N2CCN(CCCOc3ccc(-c4nc5ccccc5o4)cc3)CC2)cc1 | 4680 |
| c1ccc2oc(-c3ccc(OCCCN4CCC(c5nc6ccccc6s5)CC4)cc3)nc2c1 | 281 |
| CC(c1ccc(OCCCN2CCC(c3noc4cc(F)ccc34)CC2)cc1)c1nc2ccccc2o1 (stereo unspecified) | 30.5 |
| Fc1ccc2c(C3CCN(CCCOc4ccc(-c5nc6ccccc6s5)cc4)CC3)noc2c1 | 1270 |
| Cc1cccc(N2CCN(CCCOc3ccc(-c4nc5ccccc5o4)cc3)CC2)c1C | 2140 |
| c1ccc2c(c1)OCC(CN1CCN(CCCOc3ccc(-c4nc5ccccc5o4)cc3)CC1)O2 (stereo unspecified) | 1420 |
| FC(F)(F)c1cccc(N2CCN(CCCOc3ccc(-c4nc5ccccc5o4)cc3)CC2)c1 | 4480 |

More lines, now with the values ahead:

| Ki [nM] | SMILES |
| --- | --- |
| 41.1 | Cc1cc(-c2nc3ccccc3o2)ccc1OCCCN1CCC(c2noc3cc(F)ccc23)CC1 |
| 72.2 | COc1cc(OCCCN2CCC(c3noc4cc(F)ccc34)CC2)ccc1-c1nc2ccccc2o1 |
| 29.3 | COc1ccccc1N1CCN(CCCOc2ccc(-c3nc4ccccc4o3)cc2)CC1 |
| 38.5 | c1cnc(N2CCN(CCCOc3ccc(-c4nc5ccccc5o4)cc3)CC2)nc1 |
| 23.7 | Fc1ccc2c(C3CCN(CCCOc4ccc(-c5nc6ccccc6o5)c(F)c4)CC3)noc2c1 |
| 109 | COc1ccccc1N1CCN(CCCOc2ccc(-c3nc4ccccc4[nH]3)cc2)CC1 |

Molecular target: Voltage-gated inwardly rectifying potassium channel KCNH2 (Homo sapiens, UniProt Q12809)
Sequence (Q12809 whole entry): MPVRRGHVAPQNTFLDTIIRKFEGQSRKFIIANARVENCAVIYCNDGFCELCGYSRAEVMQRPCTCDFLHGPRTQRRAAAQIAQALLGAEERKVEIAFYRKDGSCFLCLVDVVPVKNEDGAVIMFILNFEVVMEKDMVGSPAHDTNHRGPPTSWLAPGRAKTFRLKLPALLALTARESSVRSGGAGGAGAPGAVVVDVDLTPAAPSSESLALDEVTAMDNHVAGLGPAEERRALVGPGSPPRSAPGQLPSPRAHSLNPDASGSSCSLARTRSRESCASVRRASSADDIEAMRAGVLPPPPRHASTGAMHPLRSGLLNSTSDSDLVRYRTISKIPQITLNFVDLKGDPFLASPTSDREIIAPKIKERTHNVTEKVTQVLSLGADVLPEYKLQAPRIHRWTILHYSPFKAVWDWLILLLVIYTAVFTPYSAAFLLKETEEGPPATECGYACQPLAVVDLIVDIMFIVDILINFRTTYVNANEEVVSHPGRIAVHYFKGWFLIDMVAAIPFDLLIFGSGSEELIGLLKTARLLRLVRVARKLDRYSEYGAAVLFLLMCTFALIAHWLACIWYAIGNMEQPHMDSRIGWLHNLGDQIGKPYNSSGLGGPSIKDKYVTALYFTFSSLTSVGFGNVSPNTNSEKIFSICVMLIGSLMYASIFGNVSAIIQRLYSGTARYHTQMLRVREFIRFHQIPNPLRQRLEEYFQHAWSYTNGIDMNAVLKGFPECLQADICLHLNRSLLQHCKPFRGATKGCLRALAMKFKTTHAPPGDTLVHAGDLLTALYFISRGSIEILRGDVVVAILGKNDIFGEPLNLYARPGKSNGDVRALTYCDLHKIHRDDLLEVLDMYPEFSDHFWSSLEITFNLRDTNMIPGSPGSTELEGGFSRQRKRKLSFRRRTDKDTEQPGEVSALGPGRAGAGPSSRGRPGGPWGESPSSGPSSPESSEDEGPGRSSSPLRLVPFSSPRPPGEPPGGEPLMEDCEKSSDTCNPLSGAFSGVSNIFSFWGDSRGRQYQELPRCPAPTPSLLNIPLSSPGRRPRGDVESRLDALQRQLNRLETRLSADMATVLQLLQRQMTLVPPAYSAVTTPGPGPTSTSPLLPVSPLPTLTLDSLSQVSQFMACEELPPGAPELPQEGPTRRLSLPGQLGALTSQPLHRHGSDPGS
Assay: Inhibition of human ERG expressed in HEK293 cells by whole-cell patch clamp method
Format: cell-based
Conditions: not given

| SMILES | IC50 [nM] |
| --- | --- |
| CC(c1ccc(OCCCN2CCC(c3noc4cc(F)ccc34)CC2)cc1)c1nc2ccccc2o1 (stereo unspecified) | 1010 |

System: not listed separately
Assay: Acute toxicity in Sprague-Dawley rat
Format: organism-based
Conditions: in vivo

| SMILES | LD50 [mg/kg] |
| --- | --- |
| CC(c1ccc(OCCCN2CCC(c3noc4cc(F)ccc34)CC2)cc1)c1nc2ccccc2o1 (stereo unspecified) | 614 |
